The values that follow come from PMC10124120 (European journal of medicinal chemistry, 2023).

Where only a bound is given, the exact number is not on record here.

One test concerns the target T1, SLC26A4 (Homo sapiens, UniProt O43511).
T1 sequence (O43511 1-780): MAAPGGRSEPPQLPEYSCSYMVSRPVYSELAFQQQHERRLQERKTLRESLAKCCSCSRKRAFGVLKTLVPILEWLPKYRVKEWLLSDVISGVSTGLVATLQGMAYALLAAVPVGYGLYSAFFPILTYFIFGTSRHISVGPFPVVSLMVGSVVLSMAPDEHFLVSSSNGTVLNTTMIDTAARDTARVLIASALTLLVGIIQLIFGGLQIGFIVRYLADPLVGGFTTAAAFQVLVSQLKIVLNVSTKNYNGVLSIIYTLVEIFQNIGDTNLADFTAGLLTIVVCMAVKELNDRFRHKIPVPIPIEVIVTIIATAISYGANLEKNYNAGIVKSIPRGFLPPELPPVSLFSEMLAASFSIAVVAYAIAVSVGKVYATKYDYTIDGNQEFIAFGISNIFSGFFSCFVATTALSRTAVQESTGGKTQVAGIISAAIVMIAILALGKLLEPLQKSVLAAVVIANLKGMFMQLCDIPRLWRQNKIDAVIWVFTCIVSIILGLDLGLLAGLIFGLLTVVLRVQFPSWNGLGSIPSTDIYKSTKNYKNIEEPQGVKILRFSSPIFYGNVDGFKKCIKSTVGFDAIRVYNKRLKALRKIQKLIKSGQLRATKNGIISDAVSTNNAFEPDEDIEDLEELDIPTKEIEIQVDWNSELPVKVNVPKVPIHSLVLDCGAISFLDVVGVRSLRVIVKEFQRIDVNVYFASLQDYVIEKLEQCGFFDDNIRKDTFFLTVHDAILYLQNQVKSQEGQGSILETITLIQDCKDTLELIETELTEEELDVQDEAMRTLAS
Description: YFP-based selectivity assay, SLC26A4. To be noted: for inhibition at 10 µM: read-out: % Inhibition SLC26A4. In kind it is cell-based.

The next test concerns the target T2, SLC26A3 (Mus musculus, UniProt Q9WVC8).
T2 sequence (Q9WVC8 1-757): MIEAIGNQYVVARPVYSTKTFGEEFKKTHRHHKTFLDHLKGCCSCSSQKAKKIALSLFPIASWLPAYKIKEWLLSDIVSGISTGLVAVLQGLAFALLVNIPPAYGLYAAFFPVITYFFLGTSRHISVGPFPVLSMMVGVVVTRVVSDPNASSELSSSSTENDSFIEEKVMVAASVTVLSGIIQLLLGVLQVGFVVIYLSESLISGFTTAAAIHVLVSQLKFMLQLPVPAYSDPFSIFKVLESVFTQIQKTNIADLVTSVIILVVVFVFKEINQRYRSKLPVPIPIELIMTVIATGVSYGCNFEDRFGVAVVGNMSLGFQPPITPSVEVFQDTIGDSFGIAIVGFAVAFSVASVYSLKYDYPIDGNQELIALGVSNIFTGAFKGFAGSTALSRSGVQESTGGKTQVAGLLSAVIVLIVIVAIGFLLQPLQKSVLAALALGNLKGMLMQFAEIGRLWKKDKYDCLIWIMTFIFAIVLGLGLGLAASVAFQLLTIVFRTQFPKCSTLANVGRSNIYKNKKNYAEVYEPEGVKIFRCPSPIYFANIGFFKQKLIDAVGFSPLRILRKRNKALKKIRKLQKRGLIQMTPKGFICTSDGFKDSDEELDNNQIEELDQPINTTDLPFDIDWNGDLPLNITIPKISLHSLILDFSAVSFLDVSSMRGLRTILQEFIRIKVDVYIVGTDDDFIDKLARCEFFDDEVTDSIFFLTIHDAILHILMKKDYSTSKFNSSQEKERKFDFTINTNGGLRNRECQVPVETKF
The test is described as follows: Kinetic studies of inhibitor action. Format: cell-based, murine. The following applies: from kinetics of inhibition onset and washout.

Test [1] concerns loperamide-induced constipation. Description: Loperamide-induced model of constipation in mice. Format: in vivo, CD1 mice.
Another test deals with TMEM16A. Description: YFP-based selectivity assay, TMEM16A. The following applies: 10 μM, mean ± S.E.M., n = 6–8. Format: cell-based.
Test [2] deals with loperamide-induced constipation. The following applies: mouse model of constipation produced by loperamide; cited from earlier work.
Test [3] has as its system hyperoxaluria and oxalate nephropathy. To be noted: mice orally loaded with oxalate; cited from earlier work.
Test [4] deals with absorption of fluid and oxalate from the loop lumen. To be noted: closed colonic loops in mice; cited from earlier work.
[5] abbreviates: loperamide-treated mice (0.3 mg/kg ip), 10 mg/kg oral gavage, vs vehicle.
Setting [6] is: loperamide 0.3 mg/kg intraperitoneal.

Broadly, the inhibition is the relative decrease from the control value, in per cent.

Turning to `O=c1cc(COc2ccccc2Cl)nc2scc(-c3ccccc3)n12` [Compound 3a, 7-(2-chloro-phenoxymethyl)-3-phenyl-thiazolo [3,2-a]pyrimidin-5-one], the inhibition at 10 µM on SLC26A4 was -13 ± 23%. Further, at SLC26A3, the site of action result is “Extracellular”. Besides, in test [1] (setting [5]), the number of pellets entry is listed as “significantly increased” and the stool weight result is reported as “significantly increased”.

For `COC(=O)c1c(C)oc2ccc(OC(=O)COCc3ccccc3)cc12` [Compound 4h], the “activity against SLC26A4 (in words)” value on SLC26A4 is “active”.

As to `Cc1ccccc1COc1ccc2oc(-c3ccccc3)c(C(=O)O)c2c1` [Compound 4a], on SLC26A4, the inhibition at 10 µM is -13 ± 21%. Moreover, on SLC26A3, the site of action result is listed as “Extracellular”.

Turning to `Cc1cc(C)cc(N(C)S(=O)(=O)c2nnc(NC(=O)COc3ccc(C)c(C)c3)s2)c1` [Compound 2a], the “% Inhibition TMEM16A” value in the test on TMEM16A is on record as > 80%.

As to `CN(C)C(=O)C(CCN1CCC(O)(c2ccc(Cl)cc2)CC1)(c1ccccc1)c1ccccc1` [Loperamide, loperamide, reference compound], in test [1] (setting [6]), the “reduced pellet number compared to control mice” value is reported as > 90% and the “reduced stool weight compared to control mice” value is reported as > 90%.

With `O=C(Nc1ccccc1C(=O)O)c1ccc2c(c1)C(=O)N(c1ccc(Cl)cc1)C2=O` [Compound 1a], the inhibition at 10 µM on SLC26A4 is -14 ± 19%.

Take `Cc1c(CC(=O)O)c(=O)oc2c(C)c(OCc3cccc(I)c3)ccc12` [DRAinh-A270, [7-(3-iodobenzyloxy)-4,8-dimethylcoumarin]-3-acetic acid]: the site of action result on SLC26A3 was “intracellular”. Moreover, the “improving stool output and hydration” value in test [2] was “effective”. The “preventing hyperoxaluria and oxalate nephropathy” value in test [3] was “effective”. For the same compound, in test [4], the “absorption of fluid and oxalate from the loop lumen” value is “inhibited”.
